In US5399729A, “Esterified alkoxylated polyol fat substitutes having high primary ester content” (Arco Chemical Technology, L.P., priority 1993, dated 1995):

Tested on: porcine pancreatic lipase
Assay: Porcine pancreatic lipase-catalyzed hydrolysis (lipase titrimetric assay, automatic pH stat method)
Assay type: in vitro ADME
Details: pH 8.5
Experimental: To measure the relative rate of enzyme-catalyzed hydrolysis for the esterified propoxylated glycerin, the composition was challenged by porcine pancreatic lipase. Test emulsions were prepared using the composition according to the procedures described by Naher, "Lipase Titrimetric Assay", in Methods in Enzymatic Analysis, Vol. 2, 2nd Eng. ed., p. 814 (1974), except that the composition was not neutralized prior to generation of the emulsion. A 20 mL sample of the composition was utilized. The emulsions were generated in a Waring blender equipped with a stainless steel jacketed container (300 mL capacity). The jacketed blender container was filled with an ice-in-water suspension to cool the emulsion during preparation. Hydrolysis of the composition at pH 8.50 and two enzyme levels (200 and 4000 units/assay) was monitored via the automatic pH stat method described by Naber using a Radiometic Copenhagen RTS822 recording titration system (equipped with a PHM84 pH meter and a REA 270 derivatization unit) and a 0.1N sodium hydroxide solution. The enzymatic reaction was maintained at 37° C. under a nitrogen atmosphere.
The results obtained for the esterified alkoxylated polyol obtained as described hereinabove and for olive oil and soybean oil controls are shown in Table I. The table also provides comparative data for a conventional esterified alkoxylated polyol made by reacting 8 equivalents of propylene oxide with one equivalent of glycerin under basic conditions and esterifying with soybean fatty acids; this conventional fat substitute has a low (<5%) proportion of primary ester linkages. […] This finding was surprising in view of U.S. Pat. Nos. 5,059,443 and 5,077,073, which indicate that the rate of lipase-catalyzed hydrolysis is substantially independent of the structure of the ester linkages in an esterified alkoxylated polyol fat substitute.

## Soybean Oil
  Hydrolysis Rate (#μeq/min for an equivalent amount of enzyme): 3.62 μeq/min
  Hydrolyzability (relative to olive oil): 0.738
  Normalized Hydrolyzability (hydrolyzability compared on an equal molar basis, taking into account the concentration of ester linkages): 0.723
